Source: US20250041285A1, “MODIFYING THE […] OF A GENE ENCODING AN CYCLOOXYGENASE ENZYME BY TREATING A HUMAN SUBJECT WITH A NITROXIDE” (priority 2021, published 2025)

How the values were obtained:
COX1 = experiment: Treatment of human subject with Tempol, serum level of COX1; format: in vivo; conditions: 2000 mg per day for 180 days
Procedure: A 70-kilogram human subject over the age of 65 and having a cardiovascular disease is identified for an increased expression level of COX1. Or a 70-kilogram human subject over the age of 65 is known to have a cardiovascular disease and/or […] expression level of COX1. The human subject is administered a dose of 2000 mg of Tempol (or another nitroxide antioxidant) per day for 180 days. This may be administered in a single dose, or may be administered as a number of smaller doses over a 24-hour period: for example, four 500-mg doses at […]. Following treatment, the serum level of COX1, is decreased.
A 70-kilogram human subject at risk of developing colorectal cancer is identified for increased expression level of COX1. Or a 70-kilogram human subject is known to be at risk of developing colorectal cancer and/or have increased expression level of COX1. The human subject is administered a dose of 2000 mg of Tempol (or another nitroxide antioxidant) per day for 180 days. This may be administered in a single dose, or may be administered as a number of smaller doses over a 24-hour period: for example, four 500-mg doses at […]. Following treatment, the serum level of COX1, is decreased. […]
A 70-kilogram human subject having an infection (e.g., a bacterial, fungal, or viral infection) is identified for increased expression level of COX1. Or a 70-kilogram human subject is known to have an infection and/or have increased expression level of COX1. The human subject is administered a dose of 2000 mg of Tempol (or another nitroxide antioxidant) per day for 180 days. This may be administered in a single dose, or may be administered as a number of smaller doses over a 24-hour period: for example, four 500-mg doses at […]. Following treatment, the serum level of COX1, is decreased.

PTGS1 (COX1) = experiment: Effects of Tempol on gene expression in cardiac tissue, chip-based microarray; format: in vivo; conditions: mice, Tempol 5 mg/g of food from 14 to 31 months after birth
Procedure: To assess the effects of Tempol on gene expression, Tempol was administered to experimental mice at a dose of 5 mg/g of food from 14 months to 31 months after birth. Mice receiving the same food without the addition of Tempol were used as a negative control. At the age of 31 months, the experimental animals were sacrificed and the hearts were surgically removed. The expression of a broad spectrum of genes in the cardiac tissue was assessed using chip-based microarray technology. Such chips are well known in the art and are widely used to assess gene expression.

## CC1(C)CC(O)CC(C)(C)N1[O] [Tempol, 4-hydroxy-2,2,6,6-tetramethylpiperidine-1-oxyl]
COX1; Example 2: 70-kilogram human subject over the age of 65 with increased COX1 expression
  serum level of COX1 following treatment: decreased
COX1; Example 3: 70-kilogram human subject with increased COX1 expression
  serum level of COX1 following treatment: decreased
COX1; Example 4: 70-kilogram human subject over the age of 65 having a cardiovascular disease
  serum level of COX1 following treatment: decreased
COX1; Example 5: 70-kilogram human subject at risk of developing colorectal cancer
  serum level of COX1 following treatment: decreased
COX1; Example 6: 70-kilogram human subject at risk of developing an autoimmune disease (e.g., rheumatoid arthritis)
  serum level of COX1 following treatment: decreased
COX1; Example 7: 70-kilogram human subject at risk of developing a condition due to aging
  serum level of COX1 following treatment: decreased
COX1; Example 8: 70-kilogram human subject at risk of developing a neurodegenerative disease (e.g., Parkinson's Disease)
  serum level of COX1 following treatment: decreased
COX1; Example 9: 70-kilogram human subject having an infection (bacterial, fungal, or viral)
  serum level of COX1 following treatment: decreased
PTGS1 (COX1); hearts at 31 months, vs same food without Tempol, P-value 0.006
  Fold change (gene expression in cardiac tissue after Tempol administration): −1.18
PTGS1 (COX1); microarray
  COX1 expression in cardiac tissue: statistically significant decrease in expression
